Assay results: US8067044B2, “Cosmetic compositions containing an extract of leaves of the Castanea sativa plant and cosmetic treatments” (Cognis France S.A.S., priority 2004, dated 2011)

What was measured:
[1] = Anti-DPPH test (free radical scavenging); settings: average of 2 assays
Source text: 1.2 Methods and principle of this experiment: The anti-free radical (anti-FR) activity has been evaluated by chemical tests for the evaluation of the potential to scavenge free radicals R (DPPH test) and hydroxyl radicals HO. The anti-FR activity has been evaluated also by biochemical tests to address the potential for scavenging of a kind of reactive oxygen species (ROS), the so called super oxide anion (O2). […] Xanthine oxydase (XOD) is an enzyme activated during oxidative stress, this enzyme catalyses the O2 release along the degradation of hypoxanthin (HX) which has been overproduced by a disruption of energetic cell metabolism. […] Principle: DPPH (diphenylpicryl-hydrazyl) is a stable free radical which forms a purple solution. The purple solution of DPPH^o has a whitening effect due to components that act as radical-scavengers. […] The results are expressed in percent inhibition of DPPH radical against control. The aim of this test is to show an anti-free radical activity.

[2] = system: Raphanus sativus seed germination; settings: cited from earlier work
[3] = system: strains of Gram-positive and Gram-negative bacteria; settings: same bacterial strains; cited from earlier work
B16 melanocytes = experiment: Inhibition of melanin synthesis on B16 melanocytes; assay type: cell-based; settings: for Rate of cellular proteins / Rate of melanin: control = 100; for rate of released melanin (comment): treated B16 melanocytes
Description: Aim of the experiment: to evaluate the potential of compounds to lower the melanin synthesis; the compounds have been tested on cell culture of melanocytes called B16.
• Seeding of melanocytes in growth medium • Incubation for 3 days at 37° C., CO2=5% (atmosphere: 5% carbon dioxide in air) • Exchange of the growth medium by a medium with a range of concentration of ingredients to be tested • Incubation for 3 days at 37° C., CO2=5% (atmosphere: 5% carbon dioxide in air) • Recording of Cellular levels of protein by Bradford's method • Recording of melanin by a spectrophotometric method (OD at 475 nm)

Lipoxygenase = experiment: Inhibition test on lipoxygenase (superoxide anions, luminol); assay type: biochemical
Source text: (§1) 1.2 Methods and principle of this experiment: The anti-free radical (anti-FR) activity has been evaluated by chemical tests for the evaluation of the potential to scavenge free radicals R (DPPH test) and hydroxyl radicals HO. The anti-FR activity has been evaluated also by biochemical tests to address the potential for scavenging of a kind of reactive oxygen species (ROS), the so called super oxide anion (O2). The O2 originates mainly from xanthine oxydase and lipoxygenase activities. Xanthine oxydase (XOD) is an enzyme activated during oxidative stress, this enzyme catalyses the O2 release along the degradation of hypoxanthin (HX) which has been overproduced by a disruption of energetic cell metabolism.
Lipoxygenase was incubated with a specific substrate (unsaturated fatty acid) and the ingredient to be tested. Then the rate of released superoxide anions was evaluated by a luminescent probe (luminol). Caffeic acid was tested as reference ingredient.

[4] = Anti-HO test with deoxyribose (Fenton's reaction), reaction with EDTA
Source text: as §1
Principle: The hydroxyl radical HO— (formed by H2O2 in presence of Fe++ with EDTA) oxidises deoxyribose (a component of DNA), then a pink compound is formed by condensation of thiobarbituric acid with oxidised form of deoxyribose. The optical density at 532 nm corresponds to the level of oxidised deoxyribose. An anti-free radical substance reacts with these radicals HO— and reduces the formation of this pink compound.
(§2) The results are expressed in percent of inhibition of HO— radical against control. The aim of this test is to show an anti-free radical activity.

[5] = Anti-HO test with deoxyribose (Fenton's reaction), reaction without EDTA
Source text: as §1
[…] The optical density at 532 nm corresponds to the level of oxidised deoxyribose. An anti-free radical substance reacts with these radicals HO— and reduces the formation of this pink compound.
as §2

Xanthine oxidase = Xanthine oxidase (Homo sapiens, UniProt P47989); experiment: Inhibition test on xanthine oxidase (superoxide anion revealed by NBT); assay type: biochemical
Sequence of Xanthine oxidase (P47989 whole entry, species assumed): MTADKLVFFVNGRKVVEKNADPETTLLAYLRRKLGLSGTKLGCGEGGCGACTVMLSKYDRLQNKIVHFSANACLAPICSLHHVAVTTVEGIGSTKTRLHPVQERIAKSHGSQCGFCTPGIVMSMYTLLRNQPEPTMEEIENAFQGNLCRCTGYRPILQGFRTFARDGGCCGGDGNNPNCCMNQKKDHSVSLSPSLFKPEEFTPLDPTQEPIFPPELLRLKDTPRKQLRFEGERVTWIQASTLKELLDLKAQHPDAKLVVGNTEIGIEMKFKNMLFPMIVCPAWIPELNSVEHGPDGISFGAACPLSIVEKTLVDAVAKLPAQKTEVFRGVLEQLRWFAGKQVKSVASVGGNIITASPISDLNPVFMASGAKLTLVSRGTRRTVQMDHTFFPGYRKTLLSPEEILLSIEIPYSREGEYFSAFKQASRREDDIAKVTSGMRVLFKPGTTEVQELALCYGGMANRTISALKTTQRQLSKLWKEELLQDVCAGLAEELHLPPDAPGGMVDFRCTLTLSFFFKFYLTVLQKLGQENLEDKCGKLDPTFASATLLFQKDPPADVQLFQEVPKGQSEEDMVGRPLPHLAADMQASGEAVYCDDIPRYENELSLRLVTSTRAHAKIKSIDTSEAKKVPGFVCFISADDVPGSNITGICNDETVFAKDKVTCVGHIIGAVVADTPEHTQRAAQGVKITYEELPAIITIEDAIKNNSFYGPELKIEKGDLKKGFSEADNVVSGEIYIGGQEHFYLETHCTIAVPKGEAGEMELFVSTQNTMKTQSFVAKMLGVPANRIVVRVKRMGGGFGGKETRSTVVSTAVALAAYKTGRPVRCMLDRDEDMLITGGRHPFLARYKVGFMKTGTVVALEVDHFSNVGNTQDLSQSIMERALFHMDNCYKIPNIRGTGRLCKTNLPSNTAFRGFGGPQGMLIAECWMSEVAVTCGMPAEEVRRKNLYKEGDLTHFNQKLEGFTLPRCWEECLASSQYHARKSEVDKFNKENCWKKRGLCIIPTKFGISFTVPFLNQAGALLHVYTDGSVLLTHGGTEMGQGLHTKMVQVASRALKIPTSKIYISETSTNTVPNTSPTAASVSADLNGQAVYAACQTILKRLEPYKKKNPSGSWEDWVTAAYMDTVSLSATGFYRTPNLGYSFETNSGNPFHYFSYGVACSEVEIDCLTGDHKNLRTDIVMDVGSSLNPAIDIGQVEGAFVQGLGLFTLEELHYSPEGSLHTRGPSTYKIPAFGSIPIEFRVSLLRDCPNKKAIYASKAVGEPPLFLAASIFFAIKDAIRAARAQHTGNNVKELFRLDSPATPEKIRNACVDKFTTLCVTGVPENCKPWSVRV
Source text: as §1
Xanthine oxydase is an enzyme induced during oxidative stress: it catabolises the puric bases (adenine, guanine) in uric acid and superoxide anions O2— dismutates spontaneously (or by the action of SOD=superoxyde dismutase) in H2O2 and O2.
A substance with an anti-free-radical-activity absorbs or destroys the O2— anion and thereby it reduces the optical density.
The results are expressed in percent of inhibition of O2— radical against control. The aim of this test is to show an anti-free radical activity.
As to the meaning of U/ml: for an enzyme, the dose is expressed in Units/ml for unity. In the other cases, it is not enzymes.

human fibroblasts = experiment: Inhibition of UVA effect on human fibroblasts (released MDA); assay type: cell-based
Description: Aim of the experiment: Determination of the potential of the tested ingredient to reduce negative effects of UV-A radiation on the survival rate of human fibroblasts.
• Seeding of human fibroblasts in a growth medium • Incubation for 3 days at 37° C., CO2=5% (atmosphere: 5% carbon dioxide in air) • Exchange of the growth medium by a medium with a range of concentration of ingredients to be tested • Incubation for 2 days at 37° C., CO2=5% • Exchange of the medium with ingredients by a balanced salt solution and UV-A irradiation (20 J/cm^2) • Recording of released MDA levels by spectro-fluorimetry. (MDA (malonaldialdehyde) is a product of oxidative degradation of lipids from cell membranes)

O=C1O[C@H]([C@@H](O)CO)C(O)=C1O [Vitamin C, ascorbic acid]
% of inhibition of DPPH radical/control ([1]; 0.0003 % (w/v)): 19% | % of inhibition of DPPH radical/control ([1]; 0.001 % (w/v)): 58% | % of inhibition of DPPH radical/control ([1]; 0.003 % (w/v)): 74% | % of inhibition of DPPH radical/control ([1]; 0.01 % (w/v)): 68%

O=c1cc(-c2ccc(O)cc2)oc2cc(O)cc(O)c12 [apigenin]
percentage of seed germination and root and epicotyl growth [2]: decrease | antibacterial activity among standards of the identified flavonoids [3]: highest activity

OC[C@H]1O[C@@H](Oc2ccc(O)cc2)[C@H](O)[C@@H](O)[C@@H]1O [arbutin]
Rate of cellular proteins (B16 melanocytes; dose 0.2 % w/v): 91 % against control | Rate of melanin (B16 melanocytes; dose 0.2 % w/v): 64 % against control | rate of released melanin (comment) (B16 melanocytes): strongly decreased

O=C(O)/C=C/c1ccc(O)c(O)c1 [caffeic acid]
% of inhibition (lipoxygenase, released superoxide anions) (Lipoxygenase; 0.00002 % (w/v)): 18% | % of inhibition (lipoxygenase, released superoxide anions) (Lipoxygenase; 0.0002 % (w/v)): 53%

O=c1cc(CO)occ1O [kojic acid]
Rate of cellular proteins (B16 melanocytes; dose 0.03 % w/v): 109 % against control | Rate of melanin (B16 melanocytes; dose 0.03 % w/v): 32 % against control | rate of released melanin (comment) (B16 melanocytes): strongly decreased

OC[C@@H](O)[C@@H](O)[C@H](O)[C@H](O)CO [mannitol]
% of inhibition of HO— radical/control ([4]; 0.06 % (w/v)): 25% | % of inhibition of HO— radical/control ([4]; 0.6 % (w/v)): 68%

c1cnc2c(c1)ccc1cccnc12 [o-phenanthroline]
% of inhibition of HO— radical/control ([5]; 0.02 % (w/v)): 42% | % of inhibition of HO— radical/control ([5]; 0.06 % (w/v)): 71%

O=c1c(O)c(-c2ccc(O)c(O)c2)oc2cc(O)cc(O)c12 [quercetin]
percentage of seed germination and root and epicotyl growth [2]: decrease | antibacterial activity among standards of the identified flavonoids [3]: highest activity

SOD: superoxyde dismutase, enzyme used as reference, dosed in U/ml
% of inhibition of O2— radical against control (Xanthine oxidase; 0.5 U/ml): 18% | % of inhibition of O2— radical against control (Xanthine oxidase; 5 U/ml): 50% | % of inhibition of O2— radical against control (Xanthine oxidase; 50 U/ml): 95% | IC50 (Xanthine oxidase; enzyme reference, Units/ml): 5 U/ml

Vitamin E
rate of released MDA from UV-A irradiated fibroblasts (comment) (human fibroblasts; UV-A irradiated human fibroblasts): strongly decreased | Rate of released MDA (human fibroblasts; dose 0.0003 % w/v, UV-A 20 J/cm2 (irradiated control = 100)): 7 % against control
